{"source": "patent US20230357292A1", "about": "“MULTI-COORDINATE GOLD-PHOSPHINE COMPOUNDS AND METHOD OF USE” (University of Kentucky Research Foundation, priority 2020, published 2023)", "key": {"MDA-MB-231 (breast)": {"test_system": "MDA-MB-231 (breast)", "assay": "Cell viability, crystal violet assay, MDA-MB-231", "format": "cell-based, human", "excerpt": "The plates were washed with water and dried again."}, "A2780 (ovarian)": {"test_system": "A2780 (ovarian)", "details": "A2780 (ovarian), 4,000 cells/well, treated 72 h, mean ± SD (n = 3)", "experimental": "(§1) All cell lines (OVCAR8, A2780, H460, and MDA-MB-231) were cultivated in RPMI or DMEM supplemented with 10% FBS, 1% penicillin/streptomycin, and 1% amphotericin. All cells were grown at 310K in a humidified atmosphere containing 5% CO2.\n(§2) Various established human ovarian, lung, and breast cancer cell lines were seeded in 96-well plates (4000 cells/well) and were incubated with RPMI 1640 or DMEM (100 μL) supplemented with 10% FBS, 1% penicillin/streptomycin, and 1% amphotericin for 24 h and at 37° C. They were then treated with AuPhos compounds at increasing concentrations for 72 h from stock solutions following serial dilutions, in which AuPhos stock solutions were prepared in DMSO/media mixture (% v/v=20:80). Thereafter, cellular viability was assessed via the established crystal violet colorimetric assay. In brief, cells were fixed with 50 μL of a 1% glutaraldehyde solution and placed in an incubator (37° C., 5% CO2) for 1 hour. The plates were washed with water by running them under a gentle flow of tap water. The plates were air-dried, and crystal violet reagent was added to each well and allowed to incubate at room temperature for 20 min. The plates were washed with water and dried again. Methanol (200 μL/well) was added to each well, and the measurements of absorbance were subsequently performed using a Biotek Synergy H1 Plate Reader at 570 nm (peak absorbance)."}, "H460 (lung)": {"test_system": "H460 (lung)", "details": "H460 (lung), 4,000 cells/well, treated 72 h, mean ± SD (n = 3)", "experimental": "as §1, §2"}, "OVCAR8 (ovarian)": {"test_system": "OVCAR8 (ovarian)", "details": "OVCAR8 (ovarian), 4,000 cells/well, treated 72 h, mean ± SD (n = 3)", "experimental": "as §1, §2"}, "MDA-MB-231 cells [1]": {"test_system": "MDA-MB-231 cells", "details": "1 μM for 15 h, FACS", "experimental": "MDA-MB-231 cells were seeded at a density of 5×10^5 cells/well in a 6-well clear bottom plate with a final media volume of 2 mL. The cells were allowed to adhere overnight at 37° C. A stock of AuPhos-89 was prepared fresh in DMSO/DMEM (% v/v=20:80) and added to the desired well at a concentration of 1 μM with a final volume of 2.5 mL and incubated for 15 h at 37° C. A stock of H2O2 was prepared in PBS and the cells treated at a final concentration of 2 mM for 3 hours and used as positive control. When ready for analysis, medium was removed and the wells washed with 5 mL of PBS. The cells were trypsinized (1 mL), 5 mL of DMEM were added to each well, and total volume collected and centrifuged to pellet the cells. The cells were resuspended in 2 mL of fresh media, counted, and reconstituted to a concentration of 1×10^5 cells/mL. The cells were centrifuged again, and the pellet suspended in 500 μL of Annexin binding buffer. To each sample was added 5 μl of Annexin V-FITC and 5 μl PI and incubated in the dark at room temperature for 5 minutes. The samples were then subjected to FACS analysis."}, "[2]": {"details": "10 mM in DMSO-d6, 24 h", "experimental": "Stock solutions comprised of a 1 mL, 20 mM solution of AuPhos-89 in DMSO-d6. The solution of L-GSH (20 mM) was sonicated for 5 minutes to dissolve the reagent in DMSO-d6. 1 mL of each solution were mixed in a 1:1 ratio to produce a final concentration of 10 mM in DMSO-d6. The solution was then analyzed by 1H NMR spectroscopy. The solution was further analyzed at different time intervals, t=1 h, 6 h, 12 h, and 24 h."}, "4T1 tumor [3]": {"test_system": "4T1 tumor", "assay": "In vivo comparative experiment of AuPhos-89 and cisplatin, 4T1, IP", "parameters": "species or system BALB/c mice", "experimental": "Mice were implanted with 2,000,000 4T1 cells subcutaneously on their flanks. […] The control group was injected with a PBS solution containing 1.5% DMSO and 12% Kolliphor. Injection and tumor-size/body-weight measurement was performed three days a week.\nMice organs (heart, lung, liver, kidney, spleen, and tumor) were fixed in freshly prepared paraformaldehyde (4% in PBS), the fixation time was 24 hours. And those processed for paraffin sectioning. The organs sections of 5 μm were stained with H&E staining and used for histological examination of the organs and tumor. A total of 5 sections per tissues (spanning the full depth of the organ) were examined and photographed using a Nikon Eclipse 55i microscope. […]"}, "[4]": {"test_system": "4T1 cells engineered to express RFP", "details": "10 mg kg−1 day−1, six treatments, thrice a week, compared with controls", "excerpt": "Murine TNBC 4T1 cells engineered to express RFP were also subcutaneously injected into flanks of immunocompromised mice in the presence of Matrigel."}, "MDA-MB-231 cells [5]": {"test_system": "MDA-MB-231 cells", "details": "1 μM; 24 h, 48 h, 72 h", "protocol": "MDA-MB-231 cells were seeded at a density of 5×10^5 cells/well in a 6-well clear bottom plate with a final media volume of 2 mL and allowed to adhere overnight 37° C. […] After the desired treatment period, the medium was removed and added to a 15 mL Falcon tube. The wells were washed with 5 mL of PBS and added to the Falcon tube. The cells were trypsinized (1 mL) and added 5 mL of fresh DMEM. All media were combined, and the tube centrifuged at 2000 rpm for 5 minutes to collect the pellet. The medium was decanted, and the pellet suspended in 1 mL of PBS, which was then transferred to a 1 mL Eppendorf tube, centrifuged at 2000 rpm for 5 minutes and suspended in 70% EtOH/PBS solution. These solutions were stored at 4° C. until ready for analysis. […] The cells were washed twice with PBS (1 mL) and suspended in a 50 μL of RNase solution (100 μg/mL) and 200 μL of a 50 μg/mL PI solution. The solutions were then filtered through a 5 mL polystyrene round-bottom tube fit with a cell-strainer cap. The samples were then analyzed with FACS."}, "[6]": {"details": "equimolar glutathione, aqueous solution, 24 h", "protocol": "All spectra were recorded using an Agilent Technologies 1100 series HPLC instrument and an Agilent Phase Eclipse Plus C18 column (4.6 mm×100 mm; 3.5 μm particle size). AuPhos-89 and glutathione were prepared as 1 mM stock in DMSO and water, respectively. Equimolar amounts were mixed and the solutions were measured at 0, 1, 3, and 24 h by HPLC. The parameters used in the HPLC were as follows: flow rate, 1 mL/min; λ=280 nm; eluent A=H2O with 0.1% TFA; Eluent B═CH3CN with 0.05% HCOOH; Solvent gradient: 0 min (100:0 H2O:CH3CN), 10 min (0:100 H2O:CH3CN), 15 min (100:0 H2O:CH3CN)."}, "MDA-MB-231 cells [7]": {"test_system": "MDA-MB-231 cells", "details": "TMRE or JC-1 assay, short exposure periods", "protocol": "MDA-MB-231 cells were plated at a density of 5×10^5 cells/plate in a 6 well plate and allowed to adhere overnight at 37° C. […] The cells were incubated (37° C., 5% CO2) for 1 h at this concentration. Carbonyl cyanide 3-chlorophenylhydrazone (CCCP) was prepared as a stock in DMSO and added at a final concentration of 100 μM, and the cells were treated for 1 h. It was used as a positive control. After the indicated treatment time, a working solution of the JC-1 dye (Cayman Chemicals, Cat. #15003) was prepared by adding 100 μL of dye into 900 μL of DMEM. Note: the working solution of JC-1 should always be prepared fresh and not stored for long-term use. Then, 100 μL/mL of working solution of the JC-1 dye was added to the cells and incubated at 37° C. for 20 minutes. The cells were harvested and resuspended in 2 mL PBS. The cells were analyzed on a flow cytometer with 488 nm excitation and appropriate emission filters. Gated cells, excluded debris and the CCCP-treated sample was used to performed standard compensation."}, "4T1 tumor [8]": {"test_system": "4T1 tumor", "protocol": "Female, 5 week-old BALB/c mice were purchased from Charles River Laboratories (Wilmington, MA). All mice were quarantined for 1 week prior to use and kept in micro-isolator cages (four mice per cage) in a temperature- and humidity-controlled environment as per the Division of Laboratory Animal Research (DLAR) of University of Kentucky. All mice were maintained in a pathogen-free environment under the care of DLAR of University of Kentucky. The study was performed in compliance with the NIH guidelines (NIH Publication No. 85-23 Rev. 1985) for the care and use of laboratory animals and all experimental procedures were monitored and approved by the Institutional Animal Care and Use Committee (IACUC) of University of Kentucky (USA).\nThe control group was injected with a PBS solution containing 1% DMSO and 1% Kolliphor.\nA separate group of mice was administered equal volumes of vehicle control at the same time points and via the analogous route."}, "[9]": {"details": "10 mg kg−1 IV, 1 h and 24 h; heart, lung, liver, spleen, kidney, tumor", "protocol": "With four mice inoculated with 4T1 (1,000,000 cells), after 20 days, AuPhos-89 was inserted into mice by IV administration (0.1 mL, 10 mg/kg). Each tissue was obtained by sacrificing the mice (n=2) 1 and 24 hours later. […] The solution turned yellow and diluted as needed to measure the gold content using a Graphite Furnace Atomic Absorption Spectrometer. Before measuring all samples, the standard solution curves were measured.\nAfter respective time points of 1 h and 24 h, mice were euthanized. Organs including heart, lung, liver, spleen, kidney, and tumor were excised and the gold concentration was analyzed by GF-AAS."}, "MDA-MB-231 cells [10]": {"test_system": "MDA-MB-231 cells", "assay": "Western blotting of apoptotic markers and AMPK", "details": "1 μM, indicated times", "protocol": "Furthermore, to determine if AuPhos-89 induces apoptosis through the caspase-mediated apoptotic pathway, western blotting was performed to assess the induction of caspases and cleaved PARP (FIG. 7C). […] Global changes in proteins were investigated using quantitative proteomics after 12 h of exposing MDA-MB-231 cells to AuPhos-89 at 1 μM. In this tandem mass tag (TMT)-based quantification, protein was extracted from cryo-preserved cell pellets and following tryptic digestion, TMT-labeling was performed. After fractionation, tandem LC-MS/MS was conducted and database search against HUMAN protein database was carried out. Proteins of relative quantification were divided into two categories. A quantitative ratio over 1.5 was considered upregulation while a quantitative ratio less than 1/1.5 was considered as downregulation."}}, "note": "“Also recorded” adds a separate entry of the source. Like-named read-outs stand apart in the source and are kept apart here."}
{"smiles": "[Cl-].[Cl][Au-]1([c]2ccccc2-c2ccccn2)[P+](c2ccccc2)(c2ccccc2)c2ccccc2[P+]1(c1ccccc1)c1ccccc1", "note": "[AuPhos-89, (2-phenylpyridine)[1,2-Bis(diphenylphosphino)benzene]gold(III) Dichloride]", "values": [{"measurement": "IC50", "setting": "MDA-MB-231 (breast); MDA-MB-231 (breast), 4,000 cells/well, treated 72 h, mean ± SD (n = 3)", "result": "450 ± 140", "unit": "nM"}, {"measurement": "IC50", "setting": "MDA-MB-231 (breast); cell line not stated at the place (structure-activity relationship studies)", "result": 220, "unit": "nM"}, {"measurement": "IC50", "setting": "A2780 (ovarian)", "result": "340 ± 70", "unit": "nM"}, {"measurement": "IC50", "setting": "H460 (lung)", "result": "720 ± 160", "unit": "nM"}, {"measurement": "IC50", "setting": "OVCAR8 (ovarian)", "result": "1160 ± 40", "unit": "nM"}, {"measurement": "population of cells in early to late apoptosis", "setting": "MDA-MB-231 cells [1]", "result": "~40", "unit": "%"}, {"measurement": "stability with L-GSH, proton resonances", "setting": "[2]", "result": "minimally altered"}, {"measurement": "liver metastasis (H&E sections)", "setting": "4T1 tumor [3]; 4T1 tumor-bearing mice, treated versus control", "result": "can inhibit liver metastasis; also recorded: not visible; also recorded: no palpable metastatic lesions"}, {"measurement": "tumor inhibition compared with the control group", "setting": "4T1 tumor [3]; AuPhos-89 10 mg kg−1 IP, cisplatin 3 mg kg−1 IP", "result": "significant tumor inhibition"}, {"measurement": "body weight", "setting": "4T1 tumor [3]; intraperitoneal administration", "result": "kept constant"}, {"measurement": "survival", "setting": "4T1 tumor [3]; mouse, in vivo, ip", "result": "increased rates of survival"}, {"measurement": "tumor volume", "setting": "4T1 tumor [3]; six treatments, thrice a week, IP, AuPhos-89 10 mg kg−1, cisplatin 3 mg/kg, versus vehicle control", "result": "reduced tumor volume"}, {"measurement": "tumor growth", "setting": "[4]", "result": "significant attenuation of growth"}, {"measurement": "cell cycle distribution", "setting": "MDA-MB-231 cells [5]", "result": "no significant changes to the cell cycle"}, {"measurement": "stability with L-GSH, HPLC chromatogram", "setting": "[6]", "result": "little change"}, {"measurement": "mitochondrial membrane potential (MMP)", "setting": "MDA-MB-231 cells [7]", "result": "depolarization of the MMP"}, {"measurement": "tumor growth rate", "setting": "4T1 tumor [8]; 10 mg kg−1 IV, 3 weekly injections, n=5, versus vehicle control", "result": "decreased significantly"}, {"measurement": "body weight", "setting": "4T1 tumor [8]; end of the observation period", "result": "did not exhibit significant change"}, {"measurement": "tissue biodistribution, Au levels in organs", "setting": "[9]", "result": "confirmed the uptake"}, {"measurement": "induction of caspases, cleaved PARP and AMPK", "setting": "MDA-MB-231 cells [10]", "result": "activate cleaved caspases, PARP and the cellular energy regulator, AMPK"}]}
